# Reference: patent US20230257715A1, “COMPOSITIONS AND METHODS FOR REGULATING ENTEROENDOCRINE CELL DIFFERENTIATION AND USES THEREOF” (The Children's Medical Center Corporation, priority 2020, published 2023)
# How the values were obtained:
# Assay type in all cases: cell-based
# [1] = test system: human duodenal enteroids; test: Single cell RNA sequencing of enteroids (cell type proportions, module score, scVelo trajectory)
# Experimental: To better assess the transcriptomic distinctions between cells from the various culture conditions, single cell RNA sequencing (scRNA-seq) on the 10× platform combined with sample hashing was utilized, allowing the assessment of the reproducibility of the findings from distinct donors. Enteroids from three individuals were grown in G2D12, RSP or AS, for a total of nine samples. After the 14-day protocol, enteroids were isolated and processed into a single-cell suspension and their condition and patient source were marked using Hashtag antibodies prior to pooling the samples together (Stoeckius, M. et al. Genome Biol 19, 224, doi:10.1186/s13059-018-1603-1 (2018).)^47. After labeling, cells were processed, and single-cell transcriptomes were generated.
# Enteroids were incubated in Cell Recovery solution for 40-60 minutes at 4° C. to remove the Matrigel® and then centrifuged at 500×g for 5 minutes at 4° C. To achieve single cell suspension, organoids were then incubated in 500 μL of TrypLE™ Express at 37° C. for 30 minutes and broken up by repeated pipetting using a bent P1000 pipette tip. Each sample was then diluted in 800 μL of 20% FBS in Advanced DMEM/F12, filtered through 37 μm mesh, and then centrifuged at 300×g for 10 minutes at 4° C. Dead cells were then removed using magnetic-activated cell sorting (MACS) separation following the manufacturer's protocol. Briefly, each sample was resuspended in 100 μL Dead Cell Removal MicroBeads (Miltenyi Biotec) and incubated at room temperature for 15 minutes. 400 μL of 1×Binding Buffer was then added to each sample, after which the samples were applied to prepared MACS columns placed in a MACS Separator. Flow-through containing live cells was collected. This was followed by washing the columns four times with 1× Binding Buffer, which were combined with the initial flow-through. These samples were then centrifuged at 800×g for 5 minutes at 4° C.
# Single cells isolated after dead cell removal (see, Example 18) were labeled prior to sequencing with Totalseq™-B hashtag antibodies (Biolegend), targeted against CD298 and β2-microglobulin, per the manufacturer's protocol^47. Briefly, each of the nine samples (three separate differentiation conditions in three enteroid lines) were resuspended in 50 μL of Cell Staining Buffer (Biolegend) and blocked with […] of Human TruStain FcX^TM blocking reagent (Biolegend) for 10 minutes at 4° C. The supernatant was then removed, and each sample resuspended in 50 μL of Cell Staining Buffer containing […] of a unique Totalseq™-B hashtag antibody. Samples were incubated for 30 minutes at 4° C. and then washed three times in 3.5 mL of Cell Staining Buffer. The samples were then filtered through a 37 μm mesh, resuspended in 2% BSA in PBS at a concentration of 1500 cells/μL, and then pooled together. Of note, prior to the scRNA-seq experiment, antibody binding was verified using fluorophore-conjugated antibodies with the same binding specificity.
# A total of 180,000 cells as one pool were inputted across four channels, with a recovery rate of approximately 30,000 cells across all four channels. RNA libraries were prepared from single cells by the Single Cell Core at Harvard Medical School, Boston, Mass., using the 10× Chromium Single Cell 3′ Library Chip (V3.1) with dual indexed barcodes. Briefly, single cells were partitioned into Gel Beads in Emulsion (GEMs) by the Chromium Controller. […]
# [2] = test system: human duodenal enteroids; test: Immunofluorescence staining of lineage markers CK20, MUC2, LYZ in enteroids
# Experimental: Immunofluorescence staining was performed as previously described with minor modifications (Dekkers J F, Alieva M, Wellens L M, et al. Nat Protoc 2019; 14:1l756-1771)^32. Organoids were grown in and isolated from Matrigel® as noted above. 1-3 wells from a 24-well plate were washed in 200 μL of 1× phosphate-buffered saline (PBS) and moved in suspension to a 1.5 mL microcentrifuge tube. Each tube was centrifuged at 800×g for 5 minutes at 4° C. to pellet organoids. PBS was aspirated, and organoids were fixed in 200 μL of 4% paraformaldehyde (PFA) for 20 minutes on ice, shaking. Each tube was centrifuged again as above, and PFA was aspirated. The organoids were then resuspended in 500 μL of 0.3% Triton-X in PBS and moved to a 48-well plate for the remaining steps. The organoids were permeabilized for 30 minutes at room temperature, shaking. Between each step, organoids were allowed to settle to the bottom of each well, the plate was angled, and the solution aspirated by careful pipetting. Organoids were then blocked with 5% bovine serum albumin in PBS for 1.5 hours at room temperature, shaking. This was followed by three five-minute washes in 500 μL of PBS at room temperature, shaking.
# Each well was then incubated in 200 μL of primary antibodies diluted in 5% BSA/0.1% Trition-X in PBS at 4° C. overnight. This was followed by five washes in 500 μL of 0.1% Triton-X in PBS for 15 minutes each at room temperature, shaking. 200 μL of secondary antibodies, including Alexa Fluor 488- or 647-conjugated anti-mouse (Invitrogen, A-21202, or A-31571, 1:400), Alexa Fluor 488-conjugated anti-rat (Invitrogen, A-21208, 1:400), Alexa Fluor 488-conjugated anti-goat (Invitrogen, A-11055, 1:400) or Alexa Fluor 647-conjugated anti-rabbit (Invitrogen, A-31573, 1:400), diluted in 0.1% Triton-X in PBS, which were then added to each well and incubated for two hours at room temperature, shaking. Organoids were then washed as above, then moved to new 1.5 mL centrifuge tubes. […]
# [3] = test system: human duodenal enteroids; test: qPCR analysis of enteroendocrine and lineage markers in enteroids; conditions: time-course of AS-treated enteroids, RNA every two days
# [4] = three enteroid lines, 14-day protocol
smiles,measurement,setting,value
"CCn1cc(C(=O)O)c(=O)c2c(N)c(F)c(NC3CCCCC3)cc21 [AS, AS1842856]","EE Cell Gene Module Score, effect size between culture conditions (Cohen's d)",[1]; reference gene set from mouse EE cells,larger effect size than RSP
same,proportion of EE cells (scRNA-seq),[1]; [4],18%
same,proportion of enterocytes (scRNA-seq),[1]; [4],2.5%
same,proportion of goblet cells (scRNA-seq),[1]; [4],1.5%
same,proportion of stem cells (scRNA-seq),[1]; [4],42%
same,differentiation trajectory (scVelo RNA velocity),[1]; vector field on UMAP,the majority of vectors moving towards the goblet cell cluster and then into the EE cluster
same,lysozyme (LYZ) immunofluorescence staining,[2],expressed
same,mucin 2 (MUC2) immunofluorescence staining,[2],lesser degree
same,cytokeratin 20 (CK20) immunofluorescence staining,[2]; enterocyte marker,lesser degrees
same,CHGA and SST transcript levels over time,[3],detectable transcript levels by the sixth day of differentiation
same,NEUROD1 and NEUROG3 expression over time,[3],showed increased expression around the fourth day of differentiation
